Measured values: US20110028447A1, “INDAZOLE DERIVATIVES” (Pfizer Inc., priority 2008, published 2011)
Read-outs that look alike come from different tables or passages of the source.

Key:
human CB1 receptor [1] = target: T1, human CB1 receptor (Homo sapiens, UniProt P21554); assay: Human CB1 receptor binding, [3H] CP-55,940 displacement on HEK cell membranes; design: expressed in transfected cells; host or cells: HEK cells, doxycycline-induced; membrane preparation
Outline: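 Membranes from doxycycline-induced HEK cells expressing human CB1 incubated 60 min at room temperature with [3H] CP-55,940 (final […]) in 50 mM Tris pH 7.4, 100 mM NaCl, 3 mM MgCl2, 0.2 mM EGTA, 0.04% BSA. Nonspecific binding defined with 50 μM WIN-55,212-2; filtration and scintillation counting gave EC50 and Ki.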

human CB1 receptor [2] = target: T1, human CB1 receptor; assay: [35S] GTPγS binding on membranes of CHO cells expressing the human CB1 receptor (agonism); format: biochemical; design: expressed in transfected cells; membrane preparation
Outline: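 Membranes from human CB1-expressing CHO cells (5 μg/well) incubated with test compound and [35S]GTPγS in 50 mM Tris pH 7.4, 100 mM NaCl, 3 mM MgCl2, 0.2 mM EGTA, 0.04% BSA for 45 min at 37 °C. Bound label collected by filtration, scintillation counted; EC50 from curve fits.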

[3] = GTPγS EC50, human CB1, CHO cell membranes
[4] = human CB1, CHO cell membranes, read-out: GTPγS EC50

T1 sequence (P21554 whole entry): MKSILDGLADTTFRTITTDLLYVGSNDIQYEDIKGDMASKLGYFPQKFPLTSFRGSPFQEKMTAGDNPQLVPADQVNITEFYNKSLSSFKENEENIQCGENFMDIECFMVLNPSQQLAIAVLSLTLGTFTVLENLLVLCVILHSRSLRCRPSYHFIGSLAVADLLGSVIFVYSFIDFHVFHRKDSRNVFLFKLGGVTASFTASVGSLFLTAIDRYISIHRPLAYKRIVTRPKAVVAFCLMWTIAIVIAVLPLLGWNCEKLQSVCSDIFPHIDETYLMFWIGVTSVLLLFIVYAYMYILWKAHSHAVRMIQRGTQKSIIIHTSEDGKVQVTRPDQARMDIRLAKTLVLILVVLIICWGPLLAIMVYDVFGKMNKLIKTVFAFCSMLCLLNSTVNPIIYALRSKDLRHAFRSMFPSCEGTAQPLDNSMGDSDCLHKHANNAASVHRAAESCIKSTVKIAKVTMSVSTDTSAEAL

Compound | Ki (human CB1 receptor [1]; CB1 Ki) | EC50 (human CB1 receptor [2]; [3]) | Ki (human CB1 receptor [1]; read-out: CB1 Ki) | EC50 (human CB1 receptor [2]; [4])
CC(C)(C)[C@H](NC(=O)c1nn(Cc2ccc(F)cc2)c2ccccc12)C(=O)N[C@H](CO)C(N)=O [Example 246] | 6.58 nM | 69 nM | – | –
CC(C)(C)[C@H](NC(=O)c1nn(Cc2ccc(F)cc2)c2ccccc12)C(=O)N1C[C@@H](O)[C@H](O)C1 [Example 247] | 0.65 nM | 0.95 nM | – | –
CC(C)(C)[C@H](NC(=O)c1nn(Cc2ccc(F)cc2)c2ccccc12)C(=O)N1CCOC(CO)C1 (stereo partly drawn) [Example 249] | 2.51 nM | 16.3 nM | – | –
CC(C)(C)[C@H](NC(=O)c1nn(Cc2ccc(F)cc2)c2ccccc12)C(=O)NC[C@H]1CCCC[C@H]1O [Example 250] | – | – | 3.72 nM | 18.1 nM
CC(C)(C)[C@H](NC(=O)c1nn(Cc2ccc(F)cc2)c2ccccc12)C(=O)N1CCCC(O)C1 (stereo partly drawn) [Example 251] | 0.51 nM | 2.33 nM | – | –
CC(C)(C)[C@H](NC(=O)c1nn(Cc2ccc(F)cc2)c2ccccc12)C(=O)NC[C@H]1CCCC[C@@H]1O [Example 253] | – | – | 4.5 nM | 26 nM
CC(C)(C)[C@H](NC(=O)c1nn(Cc2ccc(C(F)(F)F)cc2)c2ccccc12)C(N)=O [Example 254] | 12.3 nM | 153 nM | – | –
CC(C)(C)[C@H](NC(=O)c1nn(Cc2ccc(C(F)(F)F)cc2)c2ccccc12)C(=O)NCCO [Example 255] | 13.1 nM | 130 nM | – | –
CC(C)(C)[C@H](NC(=O)c1nn(Cc2ccc(F)cc2)c2ccccc12)C(=O)N1CCN(CC(N)=O)CC1 [Example 262] | – | – | 8.25 nM | 38.9 nM
CC(C)(C)[C@H](NC(=O)c1nn(Cc2ccccc2)c2ccccc12)C(=O)NCCNS(=O)(=O)c1ccc(C#N)cc1 [Example 263] | – | – | 8.36 nM | 100 nM
CC(C)(C)[C@H](NC(=O)c1nn(Cc2ccc(C#N)cc2)c2ccccc12)C(=O)NCCNS(=O)(=O)c1ccc(C#N)cc1 [Example 264] | – | – | 6.75 nM | 103 nM
CC(C)(C)[C@H](NC(=O)c1nn(Cc2ccc(C#N)cc2F)c2ccccc12)C(=O)NCCNS(=O)(=O)c1ccc(C#N)cc1 [Example 265] | – | – | 13.1 nM | 82 nM
CC(C)(C)[C@H](NC(=O)c1nn(Cc2ccc(F)cc2)c2ccccc12)C(=O)NCCNS(=O)(=O)c1ccc(C#N)cc1 [Example 266] | – | – | 0.94 nM | 4.34 nM
CC(C)(C)[C@H](NC(=O)c1nn(Cc2ccc(F)cc2)c2ccccc12)C(=O)NCC#N [Example 270] | 0.76 nM | 2.62 nM | – | –
CC(C)(C)[C@H](NC(=O)c1nn(Cc2ccc(F)cc2)c2ccccc12)C(=O)NCCC#N [Example 271] | 2.91 nM | 24.9 nM | – | –
CC(C)(C)[C@H](NC(=O)c1nn(Cc2ccc(F)cc2)c2ccccc12)C(=O)NC1CCOC1 (stereo partly drawn) [Example 281] | 4.83 nM | 37.4 nM | – | –
CC(C)(C)[C@H](NC(=O)c1nn(Cc2ccc(F)cc2)c2c(F)c(F)ccc12)C(N)=O [Example 282] | 0.17 nM | 0.78 nM | – | –
CC(C)(C)[C@H](NC(=O)c1nn(Cc2ccc(F)cc2)c2ccccc12)C(=O)N1C[C@@H](O)[C@@H](O)C1 [Example 284] | 1.03 nM | 12.3 nM | – | –
CC(C)(C)[C@H](NC(=O)c1nn(Cc2ccc(C#N)cc2)c2c(F)cccc12)C(=O)N[C@@H]1CCc2ccccc21 [Example 286] | – | – | 5.74 nM | 36.1 nM
CC(C)(C)[C@H](NC(=O)c1nn(Cc2ccc(F)cc2)c2ccccc12)C(=O)N[C@H]1CC[C@@H](O)C1 [Example 288] | 1.18 nM | 9.53 nM | – | –
CC(C)(C)[C@H](NC(=O)c1nn(Cc2ccc(F)cc2)c2ccccc12)C(=O)N[C@@H]1CC[C@@H](O)C1 [Example 289] | 5.13 nM | 35.8 nM | – | –

Compound | Ki (human CB1 receptor [1]; CB1 Ki) | EC50 (human CB1 receptor [2]; [3]) | Ki (human CB1 receptor [1]; read-out: CB1 Ki) | EC50 (human CB1 receptor [2]; [4])
CC(C)(C)[C@H](NC(=O)c1nn(Cc2ccc(F)cc2)c2ccccc12)C(=O)N1CCC[C@H]1C(N)=O [Example 292] | 5.25 nM | 19 nM | – | –
CC(C)(C)[C@H](NC(=O)c1nn(Cc2ccc(C#N)cc2)c2cc(F)ccc12)C(=O)NCCO [Example 295] | 9.17 nM | 64.3 nM | – | –
CC(C)(C)[C@H](NC(=O)c1nn(Cc2ccc(C#N)cc2)c2cc(F)ccc12)C(=O)NC1CC1 [Example 299] | 8.56 nM | 23.8 nM | – | –
CC(C)(C)[C@H](NC(=O)c1nn(Cc2ccc(C#N)cc2)c2cc(F)ccc12)C(N)=O [Example 300] | 5.85 nM | 121 nM | – | –
CC(C)NC(=O)OC1CCN(C(=O)[C@@H](NC(=O)c2nn(Cc3ccc(F)cc3)c3ccccc23)C(C)(C)C)CC1 [Example 302] | – | – | 5.41 nM | 33.1 nM
CCNC(=O)OC1CCN(C(=O)[C@@H](NC(=O)c2nn(Cc3ccc(F)cc3)c3ccccc23)C(C)(C)C)CC1 [Example 303] | – | – | 2.27 nM | 11 nM
CC(C)(C)[C@H](NC(=O)c1nn(Cc2ccc(F)cc2)c2ccccc12)C(=O)NCC1=NCCN1 [Example 305] | 18 nM | 86.4 nM | – | –
CC(C)(C)[C@H](NC(=O)c1nn(Cc2ccc(F)cc2)c2ccccc12)C(=O)N1CCC[C@H]1CO [Example 306] | 0.78 nM | 1.39 nM | – | –
CC(C)(C)[C@H](NC(=O)c1nn(Cc2ccc(F)cc2)c2ccccc12)C(=O)N1CCC[C@@H]1CO [Example 307] | 1.27 nM | 1.56 nM | – | –
CC(C)(C)[C@H](NC(=O)c1nn(Cc2ccc(C#N)cc2)c2ccccc12)C(=O)NCC(F)(F)F [Example 308] | 2.63 nM | 5.55 nM | – | –
CC(C)(C)[C@H](NC(=O)c1nn(Cc2ccc(C#N)cc2)c2c(F)cccc12)C(=O)NCC(F)(F)F [Example 309] | 1.59 nM | 2.59 nM | – | –
CC(C)(C)[C@H](NC(=O)c1nn(Cc2ccc(C#N)cc2)c2cc(F)ccc12)C(=O)NCC(F)(F)F [Example 310] | 1.48 nM | 2.1 nM | – | –
CC(C)(C)[C@H](NC(=O)c1nn(Cc2ccc(F)cc2)c2ccccc12)C(=O)NCC1CNC(=O)O1 (stereo partly drawn) [Example 315] | 2.91 nM | 8.67 nM | – | –
CC(=O)N1CCC(NC(=O)[C@@H](NC(=O)c2nn(Cc3ccc(F)cc3)c3ccccc23)C(C)(C)C)C1 (stereo partly drawn) [Example 320] | – | – | 12 nM | 63.2 nM
CC(C)(C)[C@H](NC(=O)c1nn(Cc2ccc(F)cc2)c2c(F)c(F)ccc12)C(=O)NCC(N)=O [Example 321] | 1.58 nM | 16.6 nM | – | –
CC(C)(C)[C@H](NC(=O)c1nn(Cc2ccc(F)cc2)c2c(F)c(F)ccc12)C(=O)NC[C@@H](O)CO [Example 322] | 8.89 nM | 109 nM | – | –
CC(C)(C)[C@H](NC(=O)c1nn(Cc2ccc(F)cc2)c2c(F)c(F)ccc12)C(=O)NC[C@H](O)CO [Example 323] | 2.99 nM | 22.5 nM | – | –
CC(C)(C)[C@H](NC(=O)c1nn(Cc2ccc(F)cc2)c2c(F)c(F)ccc12)C(=O)NCCO [Example 324] | 0.15 nM | 2.6 nM | – | –
CC(C)(C)[C@H](NC(=O)c1nn(Cc2ccc(F)cc2)c2c(F)c(F)ccc12)C(=O)NC(CO)CO [Example 325] | 1.97 nM | 5.33 nM | – | –
CC(C)(C)[C@H](NC(=O)c1nn(Cc2ccc(F)cc2)c2c(F)c(F)ccc12)C(=O)NCCS(C)(=O)=O [Example 326] | 15.8 nM | 53.2 nM | – | –
CC(C)(C)[C@H](NC(=O)c1nn(Cc2ccc(F)cc2)c2c(F)c(F)ccc12)C(=O)NCCS(N)(=O)=O [Example 327] | 4.19 nM | 18.1 nM | – | –
